Measurements: US20220187282A1, “CARDIOMYOCYTE PROLIFERATION” (The Council of the Queensland Institute of Medical Research, priority 2019, published 2022)
Like-named read-outs stand apart in the source and are kept apart here.

Experiments:
Type in all cases: biochemical
kinases [1] = target: kinases (Homo sapiens, UniProt P15735); conditions: PHKG2 FRET-Z-Lyte SP; Test Conc(μM):ATP Conc(μM) 1:10
kinases [2] = target: kinases (Homo sapiens, UniProt Q8NEB9); conditions: PIK3C3 (hVPS34) *Mn* Adapta SP; Test Conc(μM):ATP Conc(μM) 1:10
kinases [3] = target: kinases (Homo sapiens, UniProt P32298); conditions: GRK4 FRET-Z-Lyte SP; Test Conc(μM):ATP Conc(μM) 1:10
kinases [4] = target: kinases (Homo sapiens, UniProt Q8TF76); conditions: GSG2 (Haspin) FRET-Adapta SP; Test Conc(μM):ATP Conc(μM) 1:25
kinases (Homo sapiens, UniProt Q8TF76), sequence (Q8TF76 whole entry): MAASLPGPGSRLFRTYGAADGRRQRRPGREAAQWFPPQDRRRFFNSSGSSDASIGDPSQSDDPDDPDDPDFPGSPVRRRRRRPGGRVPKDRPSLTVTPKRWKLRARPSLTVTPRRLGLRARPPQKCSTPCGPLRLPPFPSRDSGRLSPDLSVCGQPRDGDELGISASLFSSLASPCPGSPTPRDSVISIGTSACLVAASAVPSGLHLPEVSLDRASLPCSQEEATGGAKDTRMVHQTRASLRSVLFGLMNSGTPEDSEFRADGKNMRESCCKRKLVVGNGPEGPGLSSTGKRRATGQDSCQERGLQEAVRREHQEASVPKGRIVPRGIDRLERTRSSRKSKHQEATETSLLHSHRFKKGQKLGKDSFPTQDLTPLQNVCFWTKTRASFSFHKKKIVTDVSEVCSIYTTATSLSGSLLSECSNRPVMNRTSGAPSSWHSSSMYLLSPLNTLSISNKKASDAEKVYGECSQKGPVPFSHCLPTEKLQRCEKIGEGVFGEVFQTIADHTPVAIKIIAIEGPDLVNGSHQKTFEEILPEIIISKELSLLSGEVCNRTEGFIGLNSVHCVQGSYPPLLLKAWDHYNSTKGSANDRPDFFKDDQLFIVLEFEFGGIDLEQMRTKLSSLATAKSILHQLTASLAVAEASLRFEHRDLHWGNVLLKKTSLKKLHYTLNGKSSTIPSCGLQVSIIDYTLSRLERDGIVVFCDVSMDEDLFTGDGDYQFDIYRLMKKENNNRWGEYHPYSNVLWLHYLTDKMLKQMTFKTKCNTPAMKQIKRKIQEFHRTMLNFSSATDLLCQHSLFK

kinases [5] = target: kinases (Homo sapiens, UniProt O96017); conditions: CHEK2 (CHK2) FRET-Z-Lyte SP; Test Conc(μM):ATP Conc(μM) 1:75
kinases [6] = target: kinases (Homo sapiens, UniProt Q9Y6M4); conditions: CSNK1G3 (CK1gamma3) Z-Lyte SP; Test Conc(μM):ATP Conc(μM) 1:5
kinases (Homo sapiens, UniProt Q9Y6M4), sequence (Q9Y6M4 whole entry): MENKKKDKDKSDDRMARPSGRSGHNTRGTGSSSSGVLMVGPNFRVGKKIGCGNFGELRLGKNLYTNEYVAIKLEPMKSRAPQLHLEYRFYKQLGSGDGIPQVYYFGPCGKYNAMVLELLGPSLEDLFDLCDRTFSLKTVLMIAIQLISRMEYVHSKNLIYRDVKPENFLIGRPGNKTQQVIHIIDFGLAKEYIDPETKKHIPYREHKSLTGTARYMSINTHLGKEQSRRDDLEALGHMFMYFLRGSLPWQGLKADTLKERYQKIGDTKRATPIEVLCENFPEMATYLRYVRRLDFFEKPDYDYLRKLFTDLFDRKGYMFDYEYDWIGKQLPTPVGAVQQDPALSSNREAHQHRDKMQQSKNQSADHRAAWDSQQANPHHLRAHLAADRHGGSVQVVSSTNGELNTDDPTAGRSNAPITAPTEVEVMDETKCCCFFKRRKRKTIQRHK

kinases [7] = target: kinases (Homo sapiens, UniProt Q9HBH9); conditions: MKNK2 (MNK2) FRET-Lantha SP; Test Conc(μM) 1
kinases [8] = target: kinases (Homo sapiens, UniProt Q13557); conditions: CAMK2D FRET-Z-Lyte SP; Test Conc(μM):ATP Conc(μM) 1:5
kinases [9] = target: kinases (Homo sapiens, UniProt P51957); conditions: NEK4 FRET-Z-Lyte SP; Test Conc(μM):ATP Conc(μM) 1:50
kinases [10] = target: kinases (Homo sapiens, UniProt Q15569); conditions: TESK1 FRET-Lantha SP; Test Conc(μM) 1
kinases [11] = target: kinases (Homo sapiens, UniProt Q06418); conditions: TYRO3 (RSE) FRET-Z-Lyte SP; Test Conc(μM):ATP Conc(μM) 1:25
kinases [12] = target: kinases (Homo sapiens, UniProt Q13555); conditions: CAMK2G FRET-Lantha SP; Test Conc(μM) 1
kinases [13] = target: kinases (Homo sapiens, UniProt P08069); conditions: IGF1R FRET-Z-Lyte SP; Test Conc(μM):ATP Conc(μM) 1:150
kinases [14] = target: kinases (Homo sapiens, UniProt Q14164); conditions: IKBKE (IKK epsilon) Z-Lyte SP; Test Conc(μM):ATP Conc(μM) 1:10
kinases [15] = target: kinases (Homo sapiens, UniProt O60331); conditions: Test Conc(μM):ATP Conc(μM) 1:10
kinases [16] = target: kinases (Homo sapiens, UniProt O14976); conditions: GAK FRET-Lantha SP; Test Conc(μM) 1
kinases [17] = target: kinases (Homo sapiens, UniProt Q16816); conditions: PHKG1 FRET-Z-Lyte SP; Test Conc(μM):ATP Conc(μM) 1:75
kinases (Homo sapiens, UniProt Q16816), sequence (Q16816 whole entry): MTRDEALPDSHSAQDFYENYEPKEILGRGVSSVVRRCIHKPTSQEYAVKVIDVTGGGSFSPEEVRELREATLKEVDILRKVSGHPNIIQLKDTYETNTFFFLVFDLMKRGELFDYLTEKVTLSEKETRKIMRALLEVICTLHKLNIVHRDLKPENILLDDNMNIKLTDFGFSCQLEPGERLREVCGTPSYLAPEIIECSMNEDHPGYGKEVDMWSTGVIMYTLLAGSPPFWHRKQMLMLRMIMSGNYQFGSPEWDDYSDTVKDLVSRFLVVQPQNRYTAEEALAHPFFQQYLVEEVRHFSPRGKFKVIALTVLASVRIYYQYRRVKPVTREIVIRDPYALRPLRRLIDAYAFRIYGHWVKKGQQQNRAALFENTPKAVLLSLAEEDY

kinases [18] = target: kinases (Homo sapiens, UniProt Q9BWU1); conditions: Test Conc(μM) 1
kinases (Homo sapiens, UniProt Q9BWU1), sequence (Q9BWU1 whole entry): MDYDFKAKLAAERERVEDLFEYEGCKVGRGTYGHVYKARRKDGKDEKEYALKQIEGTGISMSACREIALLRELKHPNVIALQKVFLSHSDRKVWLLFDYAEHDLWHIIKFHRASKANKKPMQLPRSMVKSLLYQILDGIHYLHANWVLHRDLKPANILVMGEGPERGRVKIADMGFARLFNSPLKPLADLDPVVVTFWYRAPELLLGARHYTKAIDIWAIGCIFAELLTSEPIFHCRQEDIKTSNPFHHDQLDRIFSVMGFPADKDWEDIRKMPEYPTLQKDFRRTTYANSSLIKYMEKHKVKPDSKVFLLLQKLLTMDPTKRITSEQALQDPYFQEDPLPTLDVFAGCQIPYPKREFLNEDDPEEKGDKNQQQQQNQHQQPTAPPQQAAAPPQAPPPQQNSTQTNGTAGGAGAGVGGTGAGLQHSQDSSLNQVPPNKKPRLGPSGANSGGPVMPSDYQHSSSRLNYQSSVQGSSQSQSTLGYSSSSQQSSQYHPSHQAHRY

kinases [19] = target: kinases (Homo sapiens, UniProt Q04912); conditions: MST1R (RON) FRET-Z-Lyte SP; Test Conc(μM):ATP Conc(μM) 1:10
kinases [20] = target: kinases (Homo sapiens, UniProt Q16512); conditions: PKN1 (PRK1) FRET-Z-Lyte SP; Test Conc(μM):ATP Conc(μM) 1:50
kinases [21] = target: kinases (Homo sapiens, UniProt P08581); conditions: MET (cMet) FRET-Z-Lyte SP; Test Conc(μM):ATP Conc(μM) 1:50
kinases [22] = target: kinases (Homo sapiens, UniProt P29376); conditions: LTK (TYK1) FRET-Z-Lyte SP; Test Conc(μM):ATP Conc(μM) 1:75
kinases [23] = target: kinases (Homo sapiens, UniProt Q02156); conditions: PRKCE (PKC epsilon) Z-Lyte SP; Test Conc(μM):ATP Conc(μM) 1:25
kinases [24] = target: kinases (Homo sapiens, UniProt Q9Y3S1); conditions: WNK2 FRET-Lantha SP; Test Conc(μM) 1
kinases (Homo sapiens, UniProt Q9Y3S1), sequence (Q9Y3S1 whole entry): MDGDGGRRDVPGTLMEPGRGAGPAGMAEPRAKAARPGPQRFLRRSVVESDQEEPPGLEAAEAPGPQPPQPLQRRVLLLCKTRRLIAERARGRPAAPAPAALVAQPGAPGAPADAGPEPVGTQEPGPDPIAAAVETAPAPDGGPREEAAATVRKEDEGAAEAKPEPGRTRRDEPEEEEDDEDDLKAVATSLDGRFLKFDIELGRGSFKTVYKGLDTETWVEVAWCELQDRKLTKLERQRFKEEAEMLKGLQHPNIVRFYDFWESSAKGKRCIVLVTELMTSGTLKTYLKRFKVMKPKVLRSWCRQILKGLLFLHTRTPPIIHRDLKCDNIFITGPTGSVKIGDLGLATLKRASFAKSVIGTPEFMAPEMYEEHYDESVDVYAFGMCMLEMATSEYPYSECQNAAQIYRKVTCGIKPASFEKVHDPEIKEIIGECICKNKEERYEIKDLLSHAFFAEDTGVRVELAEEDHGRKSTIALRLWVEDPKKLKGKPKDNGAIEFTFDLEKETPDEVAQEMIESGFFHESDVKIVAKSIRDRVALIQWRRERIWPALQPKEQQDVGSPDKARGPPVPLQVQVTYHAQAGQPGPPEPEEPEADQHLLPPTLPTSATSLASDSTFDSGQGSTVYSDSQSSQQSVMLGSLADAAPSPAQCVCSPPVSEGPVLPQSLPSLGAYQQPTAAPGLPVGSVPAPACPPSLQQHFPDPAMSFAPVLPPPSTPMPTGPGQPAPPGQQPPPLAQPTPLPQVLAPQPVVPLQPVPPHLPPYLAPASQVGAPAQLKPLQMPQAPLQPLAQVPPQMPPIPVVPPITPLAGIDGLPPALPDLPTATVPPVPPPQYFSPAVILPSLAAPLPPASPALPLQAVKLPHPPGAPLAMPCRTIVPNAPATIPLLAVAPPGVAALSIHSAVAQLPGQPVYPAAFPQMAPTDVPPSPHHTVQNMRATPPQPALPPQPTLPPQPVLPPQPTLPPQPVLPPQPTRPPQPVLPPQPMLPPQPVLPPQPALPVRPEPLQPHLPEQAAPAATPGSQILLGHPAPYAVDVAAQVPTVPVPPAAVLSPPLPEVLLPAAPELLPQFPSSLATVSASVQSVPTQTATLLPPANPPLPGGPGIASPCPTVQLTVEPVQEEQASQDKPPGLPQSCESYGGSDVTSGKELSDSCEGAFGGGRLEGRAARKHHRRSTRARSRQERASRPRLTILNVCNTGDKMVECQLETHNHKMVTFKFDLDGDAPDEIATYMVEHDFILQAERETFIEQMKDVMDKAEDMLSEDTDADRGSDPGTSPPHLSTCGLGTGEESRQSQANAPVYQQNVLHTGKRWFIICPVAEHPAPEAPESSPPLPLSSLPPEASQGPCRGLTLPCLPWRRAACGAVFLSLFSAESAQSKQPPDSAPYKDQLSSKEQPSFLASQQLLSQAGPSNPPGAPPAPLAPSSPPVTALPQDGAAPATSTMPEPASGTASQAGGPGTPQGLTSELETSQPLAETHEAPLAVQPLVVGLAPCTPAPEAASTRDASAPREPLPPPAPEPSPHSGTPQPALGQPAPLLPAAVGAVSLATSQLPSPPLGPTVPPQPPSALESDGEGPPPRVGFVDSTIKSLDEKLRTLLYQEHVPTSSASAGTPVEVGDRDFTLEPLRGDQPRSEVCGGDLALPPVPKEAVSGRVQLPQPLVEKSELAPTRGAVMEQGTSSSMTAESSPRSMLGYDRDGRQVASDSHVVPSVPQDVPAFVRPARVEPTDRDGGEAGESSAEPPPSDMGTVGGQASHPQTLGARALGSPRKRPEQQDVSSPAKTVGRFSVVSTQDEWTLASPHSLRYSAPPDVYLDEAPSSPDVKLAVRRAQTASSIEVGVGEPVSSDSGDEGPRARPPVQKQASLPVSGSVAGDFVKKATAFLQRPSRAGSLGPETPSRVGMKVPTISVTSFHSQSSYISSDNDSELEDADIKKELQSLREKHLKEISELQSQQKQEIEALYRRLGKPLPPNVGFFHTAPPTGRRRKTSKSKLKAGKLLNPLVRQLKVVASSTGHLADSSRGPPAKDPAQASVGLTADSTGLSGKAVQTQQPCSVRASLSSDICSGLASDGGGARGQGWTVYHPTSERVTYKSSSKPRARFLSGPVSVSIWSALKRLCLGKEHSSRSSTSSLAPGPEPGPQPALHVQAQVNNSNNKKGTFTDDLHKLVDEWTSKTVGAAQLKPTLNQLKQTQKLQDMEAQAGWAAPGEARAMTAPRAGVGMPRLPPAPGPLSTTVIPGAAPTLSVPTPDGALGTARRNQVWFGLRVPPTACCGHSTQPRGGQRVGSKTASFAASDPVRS

kinases [25] = target: kinases (Homo sapiens, UniProt Q9H422); conditions: HIPK3 (YAK1) FRET-Z-Lyte SP; Test Conc(μM):ATP Conc(μM) 1:25
kinases [26] = target: kinases (Homo sapiens, UniProt O15264); conditions: MAPK13 (p38 delta) Z-Lyte SP; Test Conc(μM):ATP Conc(μM) 1:10
kinases [27] = target: kinases (Homo sapiens, UniProt Q9Y6E0); conditions: STK24 (MST3) FRET-Z-Lyte SP; ATP Conc(μM):Test Conc(μM) 1:50
kinases [28] = target: kinases (Homo sapiens, UniProt O00238); conditions: BMPR1B (ALK6) FRET-Lantha SP; Test Conc(μM) 1

kinases (Homo sapiens, UniProt P15735), sequence (P15735 whole entry): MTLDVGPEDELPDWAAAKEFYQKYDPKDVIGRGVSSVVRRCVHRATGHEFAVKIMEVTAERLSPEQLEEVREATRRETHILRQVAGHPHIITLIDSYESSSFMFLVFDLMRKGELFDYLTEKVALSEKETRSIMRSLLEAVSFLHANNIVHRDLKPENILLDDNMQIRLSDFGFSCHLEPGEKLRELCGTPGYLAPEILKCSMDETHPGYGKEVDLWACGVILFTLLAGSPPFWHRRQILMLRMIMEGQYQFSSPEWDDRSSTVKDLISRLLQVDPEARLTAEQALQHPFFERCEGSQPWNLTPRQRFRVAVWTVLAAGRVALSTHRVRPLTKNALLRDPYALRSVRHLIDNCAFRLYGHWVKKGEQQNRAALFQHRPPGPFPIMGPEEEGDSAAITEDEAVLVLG

SMILES | Mean Inhib (%) (kinases [1]) | Mean Inhib (%) (kinases [2]) | Mean Inhib (%) (kinases [3]) | Mean Inhib (%) (kinases [4]) | Mean Inhib (%) (kinases [5]) | Mean Inhib (%) (kinases [6]) | Mean Inhib (%) (kinases [7]) | Mean Inhib (%) (kinases [8]) | Mean Inhib (%) (kinases [9]) | Mean Inhib (%) (kinases [10]) | Mean Inhib (%) (kinases [11]) | Mean Inhib (%) (kinases [12]) | Mean Inhib (%) (kinases [13]) | Mean Inhib (%) (kinases [14]) | Mean Inhib (%) (kinases [16]) | Mean Inhib (%) (kinases [17]) | Mean Inhib (%) (kinases [18]; CDK11(Inactive) FRET-Lantha SP) | Mean Inhib (%) (kinases [19]) | Mean Inhib (%) (kinases [20]) | Mean Inhib (%) (kinases [21]) | also measured
Cc1ccc(NC(=O)c2ccnc(N3CCOCC3)c2)cc1Nc1ccnc(N2CC(C)OC(C)C2)n1 (stereo not shown) [compound 3] | −2.1 | 3.5 | 0.0 | −5.6 | 10.2 | 2.9 | 2.2 | 8.1 | 14.2 | −2.5 | 9.3 | −1.7 | 11.6 | −3.5 | 29.0 | −3.8 | −0.2 | −8.2 | −5.8 | 0.4 | Mean Inhib (%) (kinases [15]; PIP5K1C FRET-Adapta SP): −4.5%; Mean Inhib (%) (kinases [18]; CDK11 Cyclin C FRET-Lantha SP): 2.1%; Mean Inhib (%) (kinases [22]): −6.4%; Mean Inhib (%) (kinases [23]): 12.2%; Mean Inhib (%) (kinases [24]): 9.6%; Mean Inhib (%) (kinases [25]): 0.6%; Mean Inhib (%) (kinases [26]): 4.7%; Mean Inhib (%) (kinases [27]): −7.6%; Mean Inhib (%) (kinases [28]): 11.9%
Cc1cc(Oc2ccnc(Nc3ccc(S(N)(=O)=O)cc3)c2)c(-c2ccccn2)nc1C [compound 65] | 4.0 | 1.1 | 16.3 | −1.9 | 0.4 | 0.1 | 2.7 | 0.3 | 3.6 | 15.5 | 1.4 | 1.3 | 6.5 | −2.3 | 39.3 | −6.4 | 1.0 | 5.3 | 0.4 | 2.5 | PIP5K1C FRET-Adapta SP Mean Mean Inhib (%) (kinases [15]; PIP5K1C): 3.2%; CDK11 Cyclin C FRET-Lantha SP Mean Mean Inhib (%) (kinases [18]; CDK11 Cyclin C): 3.8%; Mean Inhib (%) (kinases [22]): −3.9%; Mean Inhib (%) (kinases [23]): 10.0%; Mean Inhib (%) (kinases [24]): 5.8%; Mean Inhib (%) (kinases [25]): −0.3%; Mean Inhib (%) (kinases [26]): 3.7%; Mean Inhib (%) (kinases [27]): 4.9%; Mean Inhib (%) (kinases [28]): 107.0%
